Reference: ChEMBL document CHEMBL3352509, “Cyclic tertiary sulfamates: selective inhibition of the tumor-associated carbonic anhydrases IX and XII by N- and O-substituted acesulfame derivatives” (Eur J Med Chem, 2014)

Legend:
Carbonic anhydrase 1 = Carbonic anhydrase 1 (Homo sapiens, UniProt P00915); test: Inhibition of human recombinant carbonic anhydrase 1 by stopped flow CO2 hydration method
Carbonic anhydrase 2 = Carbonic anhydrase 2 (Homo sapiens, UniProt P00918); test: Inhibition of human recombinant carbonic anhydrase 2 by stopped flow CO2 hydration method
Carbonic anhydrase 9 = Carbonic anhydrase 9 (Homo sapiens, UniProt Q16790); test: Inhibition of human recombinant carbonic anhydrase 9 by stopped flow CO2 hydration method
Carbonic anhydrase 12 = Carbonic anhydrase 12 (Homo sapiens, UniProt O43570); test: Inhibition of human recombinant carbonic anhydrase 12 by stopped flow CO2 hydration method
Sequence of Carbonic anhydrase 12 (O43570 whole entry): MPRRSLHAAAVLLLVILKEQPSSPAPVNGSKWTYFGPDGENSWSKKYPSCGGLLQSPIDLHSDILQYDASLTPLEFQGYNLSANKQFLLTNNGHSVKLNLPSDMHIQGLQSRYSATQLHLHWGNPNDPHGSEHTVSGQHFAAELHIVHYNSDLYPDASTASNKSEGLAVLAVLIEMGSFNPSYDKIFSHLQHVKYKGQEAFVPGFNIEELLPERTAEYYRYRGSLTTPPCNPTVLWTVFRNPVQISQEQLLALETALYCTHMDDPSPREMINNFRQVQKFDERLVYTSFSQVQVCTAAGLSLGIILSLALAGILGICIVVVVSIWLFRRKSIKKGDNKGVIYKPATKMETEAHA

Sequence of Carbonic anhydrase 1 (P00915 whole entry): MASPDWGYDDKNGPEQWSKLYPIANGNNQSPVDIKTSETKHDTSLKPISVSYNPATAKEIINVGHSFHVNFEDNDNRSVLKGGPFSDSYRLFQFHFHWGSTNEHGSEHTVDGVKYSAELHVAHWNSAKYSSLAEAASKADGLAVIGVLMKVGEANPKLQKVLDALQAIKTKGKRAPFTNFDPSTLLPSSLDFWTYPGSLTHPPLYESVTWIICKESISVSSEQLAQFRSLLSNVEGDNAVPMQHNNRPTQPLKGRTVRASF

SMILES	Ki (Carbonic anhydrase 1)	Ki (Carbonic anhydrase 2)	Ki (Carbonic anhydrase 9)	Ki (Carbonic anhydrase 12)
CC1=CC(OCC#N)=NS(=O)(=O)O1	2.9 µM	> 20 µM	0.047 µM	–
C#CCOC1=NS(=O)(=O)OC(C)=C1	> 20 µM	> 20 µM	–	–
CC1=CC(OCC(=O)c2ccccc2)=NS(=O)(=O)O1	> 20 µM	> 20 µM	0.0153 µM	–
CC1=CC(=O)N(CC(=O)c2ccccc2)S(=O)(=O)O1	> 20 µM	> 20 µM	0.0057 µM	–
CCOC(=O)CN1C(=O)C=C(C)OS1(=O)=O	> 20 µM	> 20 µM	0.047 µM	–
CC1=CC(=O)N(Cc2ccccc2F)S(=O)(=O)O1	> 20 µM	> 20 µM	0.285 µM	–
C=CCN1C(=O)C=C(C)OS1(=O)=O	> 20 µM	> 20 µM	0.114 µM	0.103 µM
CC1=CC(OCc2cccc([N+](=O)[O-])c2)=NS(=O)(=O)O1	> 20 µM	> 20 µM	> 20 µM	–
CC1=CC(=O)N(Cc2c(F)cccc2F)S(=O)(=O)O1	> 20 µM	> 20 µM	> 20 µM	–
CCOC(=O)COC1=NS(=O)(=O)OC(C)=C1	> 20 µM	> 20 µM	0.043 µM	–
CC1=CC(=O)N(Cc2ccc(C#N)cc2)S(=O)(=O)O1	> 20 µM	> 20 µM	0.309 µM	–
CC1=CC(OCc2cccc(F)c2)=NS(=O)(=O)O1	> 20 µM	> 20 µM	> 20 µM	–
CC1=CC(=O)N(CC(=O)c2cccc([N+](=O)[O-])c2)S(=O)(=O)O1	1.3 µM	0.0255 µM	0.0168 µM	–
C=CCOC1=NS(=O)(=O)OC(C)=C1	> 20 µM	> 20 µM	0.199 µM	–
CC1=CC(OCc2ccccc2Br)=NS(=O)(=O)O1	> 20 µM	> 20 µM	0.249 µM	–
CC(=O)COC1=NS(=O)(=O)OC(C)=C1	2.49 µM	> 20 µM	> 20 µM	–
CC1=CC(=O)N(Cc2cccc([N+](=O)[O-])c2)S(=O)(=O)O1	> 20 µM	> 20 µM	0.267 µM	–
CC1=CC(OCc2ccccc2[N+](=O)[O-])=NS(=O)(=O)O1	> 20 µM	> 20 µM	0.041 µM	–
CC1=CC(=O)N(Cc2ccccc2[N+](=O)[O-])S(=O)(=O)O1	> 20 µM	> 20 µM	0.041 µM	–
CC(=O)CN1C(=O)C=C(C)OS1(=O)=O	15.6 µM	2.18 µM	> 20 µM	–
CC1=CC(=O)N(Cc2cccc(Br)c2)S(=O)(=O)O1	> 20 µM	> 20 µM	0.284 µM	–
CC1=CC(=O)N(Cc2cccc(F)c2)S(=O)(=O)O1	> 20 µM	> 20 µM	0.275 µM	–
